Values joined by “and” are separate entries in the source; they are usually repeats but may differ in a detail not shown here. Identical values can stand only once. Toxic doses and inconclusive results are not listed. No stated cut-off is given here; in the data, active means T/C of 150% or more; inactive means T/C below 125%.
System: L1210 leukemia ip in BDF1 mice, survival T/C
Assay: NCI In Vivo Anticancer Drug Screen. Data for tumor model L1210 Leukemia (intraperitoneal) in B6D2F1 (BDF1) mice
Conditions: endpoint: mean survival time, higher = longer survival
In short: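 Tumor cells were implanted, animals were treated, and survival was followed. The result divides the treated measurement by the vehicle-control measurement.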

[1] = dose: 100.0 mg/kg/injection, schedule: Q01DX009 (ip), vehicle: Klucel (hydroxypropylcellulose) (HPC)
[2] = dose: 100.0 mg/kg/injection, schedule: Q04DX003 (ip), vehicle: Klucel (hydroxypropylcellulose) (HPC)
[3] = dose: 200.0 mg/kg/injection, schedule: Q01DX009 (ip), vehicle: Klucel (hydroxypropylcellulose) (HPC)
[4] = dose: 200.0 mg/kg/injection, schedule: Q04DX003 (ip), vehicle: Klucel (hydroxypropylcellulose) (HPC)
[5] = dose: 400.0 mg/kg/injection, schedule: Q01DX009 (ip), vehicle: Klucel (hydroxypropylcellulose) (HPC)
[6] = dose: 400.0 mg/kg/injection, schedule: Q04DX003 (ip), vehicle: Klucel (hydroxypropylcellulose) (HPC)
[7] = dose: 100.0 mg/kg/injection, schedule: Q01DX001 (ip), vehicle: carboxymethylcellulose (CMC)
[8] = dose: 200.0 mg/kg/injection, schedule: Q01DX001 (ip), vehicle: carboxymethylcellulose (CMC)
[9] = dose: 400.0 mg/kg/injection, schedule: Q01DX001 (ip), vehicle: carboxymethylcellulose (CMC)
[10] = dose: 100.0 mg/kg/injection, schedule: Q01DX001 (ip), vehicle: saline
[11] = dose: 200.0 mg/kg/injection, schedule: Q01DX001 (ip), vehicle: saline
[12] = dose: 100.0 mg/kg/injection, schedule: Q04DX003 (ip), vehicle: saline with Tween-80
[13] = dose: 200.0 mg/kg/injection, schedule: Q04DX003 (ip), vehicle: saline with Tween-80
[14] = dose: 400.0 mg/kg/injection, schedule: Q04DX003 (ip), vehicle: saline with Tween-80
[15] = dose: 100.0 mg/kg/injection, schedule: Q04DX003 (ip), vehicle: saline
[16] = dose: 200.0 mg/kg/injection, schedule: Q04DX003 (ip), vehicle: saline
[17] = dose: 400.0 mg/kg/injection, schedule: Q04DX003 (ip), vehicle: saline
[18] = dose: 100.0 mg/kg/injection, schedule: Q01DX009 (ip), vehicle: saline with Tween-80
[19] = dose: 200.0 mg/kg/injection, schedule: Q01DX009 (ip), vehicle: saline with Tween-80

Measured: T/C

S=C1NC(c2ccc(Cl)cc2)N2C(=S)NC(c3ccc(Cl)cc3)N12 (stereo unspecified)
inactive: dose: 100.0 mg/kg/injection, schedule: Q01DX009 (ip), vehicle: gum acacia 98 % of control | dose: 100.0 mg/kg/injection, schedule: Q04DX003 (ip), vehicle: gum acacia 104 % of control | dose: 200.0 mg/kg/injection, schedule: Q01DX009 (ip), vehicle: gum acacia 93 % of control | dose: 200.0 mg/kg/injection, schedule: Q04DX003 (ip), vehicle: gum acacia 101 % of control | dose: 400.0 mg/kg/injection, schedule: Q04DX003 (ip), vehicle: gum acacia 98 % of control

COC(=O)NC1CC(O)C(CO)C1 (stereo unspecified)
inactive: dose: 50.0 mg/kg/injection, schedule: Q01DX009 (ip), vehicle: Klucel (hydroxypropylcellulose) (HPC) 94 % of control | [1] 97 % of control

Cc1ccc(NC(=O)COc2ccc(Cl)cc2)cc1Cl
inactive: [1] 94 % of control | [2] 93 % of control | [3] 86 % of control | [4] 90 % of control | [5] 93 % of control | [6] 101 % of control

O=C(OC1CCCC2CCCC21)c1ccc([N+](=O)[O-])cc1 (stereo unspecified)
inactive: [7] 93 % of control | [8] 95 % of control | [9] 98 % of control

CCCc1c(CC)c(Cl)nc2ccccc12
inactive: [10] 105 % of control | [11] 103 % of control | dose: 400.0 mg/kg/injection, schedule: Q01DX001 (ip), vehicle: saline 91 % of control

CC(=O)OCCS(=O)(=O)CCc1ccccc1
inactive: dose: 62.5 mg/kg/injection, schedule: Q01DX009 (ip), vehicle: Klucel (hydroxypropylcellulose) (HPC) 96 % of control | dose: 125.0 mg/kg/injection, schedule: Q01DX009 (ip), vehicle: Klucel (hydroxypropylcellulose) (HPC) 100 % of control | dose: 250.0 mg/kg/injection, schedule: Q01DX009 (ip), vehicle: Klucel (hydroxypropylcellulose) (HPC) 98 % of control

COc1ccc(OC)c(NC(=O)Nc2ccc(O)cc2)c1
inactive: [12] 98 % of control | [13] 98 % of control | [14] 93 % of control

CSc1nc(N)nc2c1ncn2C1OC(CO)C(O)C1O (stereo unspecified)
inactive: dose: 63.0 mg/kg/injection, schedule: Q01DX009 (ip), vehicle: saline 98 % of control | [10] 105 % of control | dose: 108.0 mg/kg/injection, schedule: Q01DX009 (ip), vehicle: saline 98 % of control | dose: 178.0 mg/kg/injection, schedule: Q01DX001 (ip), vehicle: saline 110 % of control | dose: 180.0 mg/kg/injection, schedule: Q01DX009 (ip), vehicle: saline 118 % of control | [11] 112 % of control | dose: 267.0 mg/kg/injection, schedule: Q01DX001 (ip), vehicle: saline 121 % of control

CC1(C)N=C(N)N=C(N)N1CCCOc1ccc(NC(=O)Nc2cccc(S(=O)(=O)F)c2)cc1
inactive: dose: 25.0 mg/kg/injection, schedule: Q01DX001 (ip), vehicle: saline with Tween-80 102 % of control | dose: 50.0 mg/kg/injection, schedule: Q01DX001 (ip), vehicle: saline with Tween-80 100 % of control

S=P(S)(Oc1ccc(Cl)cc1Cl)Oc1ccc(Cl)cc1Cl.[Cd]
inactive: dose: 25.0 mg/kg/injection, schedule: Q04DX002 (ip), vehicle: saline with Tween-80 89 % of control | dose: 50.0 mg/kg/injection, schedule: Q04DX002 (ip), vehicle: saline with Tween-80 92 % of control | dose: 100.0 mg/kg/injection, schedule: Q04DX002 (ip), vehicle: saline with Tween-80 123 % of control

CCN(CCO)CC1OC(OC)C2OC(C)(C)OC12 (stereo unspecified)
inactive: dose: 100.0 mg/kg/injection, schedule: Q01DX009 (ip), vehicle: saline 97 % of control | [15] 98 % of control | dose: 200.0 mg/kg/injection, schedule: Q01DX009 (ip), vehicle: saline 100 % of control | [16] 95 % of control | dose: 400.0 mg/kg/injection, schedule: Q01DX009 (ip), vehicle: saline 94 % of control | [17] 96 % of control

CC(=Nc1ccccc1)C1=C(O)C(Cc2ccccc2)NC1=O (stereo unspecified)
inactive: dose: 50.0 mg/kg/injection, schedule: Q01DX001 (ip), vehicle: carboxymethylcellulose (CMC) 101 % of control | [7] 103 % of control | dose: 178.0 mg/kg/injection, schedule: Q01DX001 (ip), vehicle: carboxymethylcellulose (CMC) 101 % of control and 102 % of control | [8] 120 % of control | dose: 267.0 mg/kg/injection, schedule: Q01DX001 (ip), vehicle: carboxymethylcellulose (CMC) 101 % of control and 109 % of control | [9] 101 % of control and 117 % of control

COC(=O)NCCc1cc(OC)c(OC)cc1Br
inactive: [12] 86 % of control | [13] 91 % of control | [14] 91 % of control

COc1ccccc1C(c1ccccc1OC)N(C)C(C)(C)CO
inactive: dose: 6.25 mg/kg/injection, schedule: Q01DX009 (ip), vehicle: saline sonified 102 % of control | dose: 12.5 mg/kg/injection, schedule: Q01DX009 (ip), vehicle: saline sonified 101 % of control | dose: 25.0 mg/kg/injection, schedule: Q01DX009 (ip), vehicle: saline sonified 106 % of control

CC(=O)Oc1ccc2c(C)cc(=O)oc2c1
inactive: [10] 100 % of control | [11] 109 % of control

c1c(NC2=NCCO2)cc2c3c1CCCN3CCC2
inactive: dose: 50.0 mg/kg/injection, schedule: Q01DX009 (ip), vehicle: saline 95 % of control

C[C@]1(O)CC[C@H]2[C@@H]3CCC4=CC(=O)CC[C@]4(C)[C@@]3(F)C(=O)C[C@@]21C
inactive: [1] 101 % of control | dose: 100.0 mg/kg/injection, schedule: Q04DX003 (ip), vehicle: other 92 % of control | [3] 101 % of control | dose: 200.0 mg/kg/injection, schedule: Q04DX003 (ip), vehicle: other 108 % of control | [5] 95 % of control | dose: 400.0 mg/kg/injection, schedule: Q04DX003 (ip), vehicle: other 94 % of control

O=C(CBr)N=c1cc(-c2ccc(Cl)cc2)ss1
inactive: [15] 95 % of control | [16] 91 % of control | [17] 101 % of control

COc1cc2c(cc1OC)C(CCN1C(=O)CCC1=O)NCC2 (stereo unspecified)
inactive: [18] 92 % of control | [19] 98 % of control

[B-][N+]12CC[N+]([B-])(CC1)CC2
inactive: dose: 0.06 mg/kg/injection, schedule: Q01DX009 (ip), vehicle: saline sonified 98 % of control | dose: 0.06 mg/kg/injection, schedule: Q04DX003 (ip), vehicle: saline sonified 113 % of control | dose: 0.13 mg/kg/injection, schedule: Q01DX009 (ip), vehicle: saline sonified 96 % of control | dose: 0.13 mg/kg/injection, schedule: Q04DX003 (ip), vehicle: saline sonified 96 % of control | dose: 0.25 mg/kg/injection, schedule: Q01DX009 (ip), vehicle: saline sonified 100 % of control | dose: 0.25 mg/kg/injection, schedule: Q04DX003 (ip), vehicle: saline sonified 103 % of control

CCOc1ccc(Nc2cccc(O)c2)cc1
inactive: dose: 50.0 mg/kg/injection, schedule: Q01DX009 (ip), vehicle: saline with Tween-80 95 % of control | [18] 103 % of control | [19] 95 % of control

Cc1ccc(/C=C\C(=O)c2ccccc2)cc1
inactive: [2] 100 % of control | [4] 96 % of control | [6] 102 % of control
